For 17 compounds, viability and Number of cells results are on record in patent US20230295068A1, “NOVEL CYCLOALKENONE COMPOUND OR SALT THEREOF” (TAIHO PHARMACEUTICAL CO., LTD., priority 2020, published 2023).

This data set deals with ND3 neuronal cell line. Kind of data set: Measurement of nerve growth stimulation effect (neurite bearing assay, neurite length assay, number of cells). The format is cell-based. The note with it: relative cell number, DMSO well = 1; for viability at 1 µM / viability at 3 µM / viability at 5 µM / viability at 10 µM / viability at 30 µM / viability at 100 µM: 6 hours; for Number of cells: ND3 cells, 6 h. Here is the method: To evaluate the nerve growth stimulation effect, neurite bearing assay (proportion of neurite-bearing cells) and neurite length assay (neurite length) were analyzed with reference to the method of Topalli et al. (Brain Research 1030 (2004), pp. 116-124).
An ND3 neuronal cell line (European Collection of Authenticated Cell Cultures) was seeded in a DMEM medium containing 10% fetal bovine serum (0.6×10^4 cells/1 mL) in a 24-well plate. 24 hours later, the medium of seeded cells was removed, and a solution in which the compound of the present disclosure that was sequentially diluted in dimethyl sulfoxide (DMSO) was adjusted in DIEM containing 0.1% bovine serum albumin so that the DMSO final concentration was 0.1%, was added to cells (evaluation performed in duplicate). After six hours from the addition, the proportion of neurite-bearing cells (the number of cells having a neurite longer than the diameter of the cell body/number of total cells), and the neurite length per cell were analyzed. The number of total cells, proportion of neurite-bearing cells, and neurite length per cell were analyzed using a MetaMorph Neurite Outgrowth Application Module (Molecular Devices Japan K.K.). The number of cells was defined as the relative cell number, taking the number of cells per well containing DMSO as 1. The relative activity of each compound when the maximum activity of 3-(15-methoxypentadecyl)-2,4,4-trimethylcyclohexa-2-en-1-one (compound 24) in each test was defined as 1 is shown (Table 9). For the compounds for which multiple tests were conducted, the average value was shown. Data with a number of cells of 0.5 or more was also used. Accordingly, if the number of cells was less than 0.5, the neurite length per cell and the proportion of neurite-bearing cells were defined as “-”.

Take `COCCCCCCCCCCCCCCCC1=C(C)C(=O)C(C)C1C` (stereo not shown) [Compound 46, 3-(15-methoxypentadecyl)-2,4,5-trimethylcyclopent-2-en-1-one]: the viability at 1 µM turned out to be 94%, the viability at 3 µM was 99%, the viability at 5 µM was found to be 83% and the viability at 10 µM was 78%. In addition, the viability at 30 µM is 102% and the viability at 100 µM was found to be 98%.
Regarding `CC1=C(CCCCCCCCCCCCCCC(=O)N(C)C)C(C)(C)CCC1=O` [Compound 54, N,N-dimethyl-15-(2,6,6-trimethyl-3-oxocyclohex-1-en-1-yl)pentadecanamide], the viability at 1 µM is 93%, the viability at 3 µM amounted to 112%, the viability at 5 µM was 87% and the viability at 10 µM turned out to be 90%. Moreover, the viability at 30 µM amounted to 4% and the viability at 100 µM worked out at 5%.
With `CCOCCCCCCCCCCCCCCC1=C(C)C(=O)CCC1(C)C` [Compound 22, 3-(14-ethoxytetradecyl)-2,4,4-trimethylcyclohex-2-en-1-one], the viability at 1 µM stood at 114%, the viability at 3 µM was determined as 103%, the viability at 5 µM came to 94% and the viability at 10 µM worked out at 103%. The viability at 30 µM is 99% and the viability at 100 µM came to 97%.
In the case of `CNC(=O)OCCCCCCCCCCCCCCCC1=C(C)C(=O)CCC1(C)C` [Compound 55, 15-(2,6,6-trimethyl-3-oxocyclohex-1-en-1-yl)pentadecylmethylcarbamate], the viability at 1 µM was found to be 105%, the viability at 3 µM worked out at 102%, the viability at 5 µM came to 85% and the viability at 10 µM was found to be 85%. The viability at 30 µM is 69% and the viability at 100 µM came to 25%.
As for `COCCCCCCCCCCCCCCCC1=CC(=O)CCC1(C)C` [Compound 39, 3-(15-methoxypentadecyl)-4,4-dimethylcyclohex-2-en-1-one], the viability at 1 µM turned out to be 83%, the viability at 3 µM was determined as 100%, the viability at 10 µM is 97% and the viability at 30 µM was 97%. Moreover, the viability at 100 µM was found to be 49%.
As for `COCCCCCCCCCCCCCCCC1=C(C)C(=O)CCC12CC2` [Compound 44, 4-(15-methoxypentadecyl)-5-methylspiro[2,5]oct-4-en-6-one], the viability at 1 µM was 83%, the viability at 3 µM was determined as 90%, the viability at 5 µM is 82% and the viability at 10 µM came out at 75%. Moreover, the viability at 30 µM worked out at 91% and the viability at 100 µM is 89%.
On to `CCCCOCCCCCCCCCCCCC1=C(C)C(=O)CCC1(C)C` [Compound 15, 3-(12-butoxydodecyl)-2,4,4-trimethylcyclohex-2-en-1-one], for which the viability at 1 µM came to 93%, the viability at 3 µM was found to be 100%, the viability at 5 µM was found to be 95% and the viability at 10 µM amounted to 88%. Also, the viability at 30 µM is 101% and the viability at 100 µM turned out to be 92%.
`COCCCCCCCCCCCCCCCC1=C(C)C(=O)CCC1` [Compound 38, 3-(15-methoxypentadecyl)-2-methylcyclohex-2-en-1-one]: the viability at 1 µM was determined as 96%, the viability at 3 µM was found to be 101%, the viability at 5 µM was 91% and the viability at 10 µM was determined as 86%. The viability at 30 µM was determined as 80% and the viability at 100 µM worked out at 52%.
For the compound `CC1=C(CCCCCCCCCCCCOC(C)C)C(C)(C)CCC1=O` [Compound 13, 3-(12-isopropoxydodecyl)-2,4,4-trimethylcyclohex-2-en-1-one], the viability at 1 µM was determined as 91%, the viability at 3 µM came out at 87%, the viability at 5 µM is 75% and the viability at 10 µM is 73%. Further, the viability at 30 µM amounted to 34% and the viability at 100 µM turned out to be 18%.
As to `CC1=C(CCCCCCCCCCCCCCCOc2ccccc2)C(C)(C)CCC1=O` [Compound 51, 3-(15-phenoxypentadecyl)-2,4,4-trimethylcyclohex-2-en-1-one], the viability at 1 µM was 107%, the viability at 3 µM is 103%, the viability at 5 µM was determined as 93% and the viability at 10 µM is 93%. Further, the viability at 30 µM is 96% and the viability at 100 µM came to 94%.
As for `CC1=C(CCCCCCCCCCCCCOC(C)C)C(C)(C)CCC1=O` [Compound 18, 3-(13-isopropoxytridecyl)-2,4,4-trimethylcyclohex-2-en-1-one], the viability at 1 µM is 116%, the viability at 3 µM is 106%, the viability at 5 µM was found to be 89% and the viability at 10 µM was 97%. Moreover, the viability at 30 µM came to 95% and the viability at 100 µM came out at 89%.
As for `CCCOCCCCCCCCCCCCC1=C(C)C(=O)CCC1(C)C` [Compound 14, 2,4,4-trimethyl-3-(12-propoxydodecyl)cyclohex-2-en-1-one], the viability at 1 µM came to 98%, the viability at 3 µM turned out to be 98%, the viability at 5 µM worked out at 91% and the viability at 10 µM was 95%. Further, the viability at 30 µM is 95% and the viability at 100 µM came to 75%.
Take `CC1=C(CCCCCCCCCCCCCCCOC(=O)N(C)C)C(C)(C)CCC1=O` [Compound 36, 15-(2,6,6-trimethyl-3-oxocyclohex-1-en-1-yl)pentadecyl dimethylcarbamate]: the viability at 1 µM turned out to be 91%, the viability at 3 µM was 107%, the viability at 5 µM amounted to 97% and the viability at 10 µM was determined as 94%. Further, the viability at 30 µM turned out to be 98% and the viability at 100 µM worked out at 86%.
With `[2H]C([2H])([2H])OCCCCCCCCCCCCCCCC1=C(C)C(=O)CCC1(C)C` [Compound 27, 3-(15-(methoxy-d3)pentadecyl)-2,4,4-trimethylcyclohex-2-en-1-one], the viability at 3 µM is 90%, the viability at 5 µM was 87%, the viability at 10 µM amounted to 83% and the viability at 30 µM stood at 83%. Also, the viability at 100 µM was determined as 88%.
`CCC1=C(CCCCCCCCCCCCCCCOC)C(C)(C)CCC1=O` [Compound 60, 2-ethyl-3-(15-methoxypentadecyl)-4,4-dimethylcyclohex-2-en-1-one]: the viability at 1 µM is 90%, the viability at 3 µM was determined as 91%, the viability at 5 µM is 80% and the viability at 10 µM was 78%. Besides, the viability at 30 µM turned out to be 34% and the viability at 100 µM worked out at 79%.
For `CCCC1=C(CCCCCCCCCCCCCCCOC)C(C)(C)CCC1=O` [Compound 61, 3-(15-methoxypentadecyl)-4,4-dimethyl-2-propylcyclohex-2-en-1-one], the Number of cells is recorded as 0.84 (1 μM compound); 0.82 (3 μM compound); 0.87 (5 μM compound); 0.77 (10 μM compound); 0.92 (30 μM compound); 0.82 (100 μM compound).
On to `COCCCCCCCCCCCCCCCC1=C(C(C)C)C(=O)CCC1(C)C` [Compound 62, 2-isopropyl-3-(15-methoxypentadecyl)-4,4-dimethylcyclohex-2-en-1-one], for which the Number of cells by setting is: (1 μM compound) 0.92; (3 μM compound) 0.89; (5 μM compound) 0.83; (10 μM compound) 0.78; (30 μM compound) 0.91; (100 μM compound) 0.91.
